Data as given in US20240124412A1, “IKAROS ZINC FINGER FAMILY DEGRADERS AND USES THEREOF” (Gilead Sciences, Inc., priority 2021, published 2024).

Key:
IKZF2 = biological target: T1, IKZF2 (Homo sapiens, UniProt Q96SW2+Q9UKS7); assay: HiBiT protein tagging assay, in vitro IKZF2 degradation (HEK293); type: cell-based; conditions: HEK293, 18-24 hr incubation, normalized to DMSO control; for Dmax: HEK293, HiBiT assay, read-out: IKZF2 Dmax (maximum degradation at the highest concentration tested); for DC50: HiBiT assay, read-out: IKZF2 EC50
T1 construct: expressed in transfected cells
T1 sequence (Q9UKS7 1-500 isoform Q9UKS7-2): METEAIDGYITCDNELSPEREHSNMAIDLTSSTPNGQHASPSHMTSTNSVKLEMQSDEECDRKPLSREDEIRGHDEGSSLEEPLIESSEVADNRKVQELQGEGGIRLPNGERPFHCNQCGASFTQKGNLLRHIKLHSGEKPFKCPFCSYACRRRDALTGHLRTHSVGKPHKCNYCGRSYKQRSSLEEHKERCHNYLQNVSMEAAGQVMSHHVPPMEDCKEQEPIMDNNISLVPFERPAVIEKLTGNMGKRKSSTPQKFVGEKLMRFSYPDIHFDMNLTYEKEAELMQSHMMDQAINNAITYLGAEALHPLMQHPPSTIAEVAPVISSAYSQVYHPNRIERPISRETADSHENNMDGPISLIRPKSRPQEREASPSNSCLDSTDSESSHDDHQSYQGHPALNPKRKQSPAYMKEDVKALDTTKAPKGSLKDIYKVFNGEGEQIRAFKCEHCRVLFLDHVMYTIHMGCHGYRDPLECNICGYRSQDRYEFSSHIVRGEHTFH
T1 sequence (Q96SW2 whole entry): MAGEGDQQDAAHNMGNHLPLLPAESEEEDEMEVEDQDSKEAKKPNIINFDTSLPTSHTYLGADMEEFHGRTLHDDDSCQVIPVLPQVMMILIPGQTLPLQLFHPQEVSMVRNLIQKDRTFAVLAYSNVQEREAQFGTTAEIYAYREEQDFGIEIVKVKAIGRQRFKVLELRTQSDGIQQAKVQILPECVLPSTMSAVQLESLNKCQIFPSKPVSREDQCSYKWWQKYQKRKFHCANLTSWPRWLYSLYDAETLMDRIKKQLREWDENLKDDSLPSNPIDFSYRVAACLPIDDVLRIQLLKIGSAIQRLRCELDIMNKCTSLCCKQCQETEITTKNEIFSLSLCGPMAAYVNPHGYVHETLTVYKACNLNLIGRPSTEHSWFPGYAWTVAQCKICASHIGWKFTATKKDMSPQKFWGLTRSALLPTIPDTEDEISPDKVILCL
T1 sequence (Q16531 whole entry partner): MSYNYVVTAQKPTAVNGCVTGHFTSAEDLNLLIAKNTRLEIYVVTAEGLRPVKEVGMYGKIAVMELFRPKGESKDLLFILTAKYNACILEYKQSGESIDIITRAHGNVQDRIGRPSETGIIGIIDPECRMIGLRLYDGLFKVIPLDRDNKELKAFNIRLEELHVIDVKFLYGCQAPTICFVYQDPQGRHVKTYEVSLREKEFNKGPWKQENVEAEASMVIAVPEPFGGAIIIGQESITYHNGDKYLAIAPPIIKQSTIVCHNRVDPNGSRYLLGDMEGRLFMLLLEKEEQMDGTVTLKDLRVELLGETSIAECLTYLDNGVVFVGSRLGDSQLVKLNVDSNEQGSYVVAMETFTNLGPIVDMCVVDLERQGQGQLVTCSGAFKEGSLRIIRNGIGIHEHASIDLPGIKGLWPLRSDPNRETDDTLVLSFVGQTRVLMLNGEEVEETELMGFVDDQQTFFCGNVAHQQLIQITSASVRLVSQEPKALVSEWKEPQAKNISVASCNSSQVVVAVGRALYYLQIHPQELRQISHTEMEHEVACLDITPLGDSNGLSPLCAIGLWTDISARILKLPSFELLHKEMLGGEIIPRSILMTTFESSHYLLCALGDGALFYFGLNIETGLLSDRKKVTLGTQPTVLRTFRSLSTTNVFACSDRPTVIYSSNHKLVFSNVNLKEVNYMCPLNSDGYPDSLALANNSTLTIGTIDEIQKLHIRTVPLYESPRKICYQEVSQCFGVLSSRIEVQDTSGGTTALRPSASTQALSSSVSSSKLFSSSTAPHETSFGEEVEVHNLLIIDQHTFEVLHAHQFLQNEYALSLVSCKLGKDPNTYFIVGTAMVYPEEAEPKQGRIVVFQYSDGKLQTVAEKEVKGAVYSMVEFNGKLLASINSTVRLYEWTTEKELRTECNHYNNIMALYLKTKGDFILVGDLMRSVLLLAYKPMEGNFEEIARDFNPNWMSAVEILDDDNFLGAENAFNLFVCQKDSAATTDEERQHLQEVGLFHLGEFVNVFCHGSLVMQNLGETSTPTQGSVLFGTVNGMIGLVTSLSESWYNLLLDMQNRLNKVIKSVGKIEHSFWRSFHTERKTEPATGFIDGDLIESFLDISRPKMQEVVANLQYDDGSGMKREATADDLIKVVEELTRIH
Experimental: (§1) In vitro degradation of IKZF1 and IKZF2 was measured using HiBiT protein tagging and detection technology (Promega).
(§2) HiBiT technology (Promega) was used to develop the quantitative assays to measure the cellular IKZFs level by tagging an 11 amino acid HiBit peptides VSGWRLFKKIS (SEQ ID NO:1) to the protein of interest. Reporter plasmids were generated by fusing a linker sequence (GSSGGSSG; SEQ ID NO:2) followed by the HiBiT tag at the C terminus of IKZF1 and IKZF2. The fusion fragments were subsequently cloned into pcDNA5 pcDNA™5/FRT/TO plasmids (Thermo Fisher, cat #V652020) downstream of the Tetracycline operator. The resulting plasmids were co-transfected with pOG44 Flp-Recombinase Expression Vector (Thermo Fisher, cat #V600520) into Flp-In™ T-REx HEK293 line (Thermo Fisher, cat #R78077) and a stable cell pool was selected by adding 100 μg/ml of Hygromycin (Thermo Fisher, cat #10687010). The reporter cell enabled Tet-On inducible reporter expression from a single copy of the integrated gene.
(§3) On Day 1, Cells were grown to ˜80% confluency in TC medium (DMEM Glutamax (Gibco10569), 10% Tet free FBS (Takara 631106), and PenStrep Glutamin (Gibco 10378)) in tissue culture flasks. Doxycycline was then added to a final concentration of 1 μg/ml to induce reporter expression at 37° C. overnight.
(§4) On Day 2, 125 nL of serially-diluted solution of testing compounds were dispensed into 384-well white solid assay plates via ECHO acoustic liquid handler. Cells were lifted by 0.25% Trypsin (Gibco 25200) then pelleted by centrifugation (Beckman Avanti J-E) at 500×g for 5 min. Cell pellets were resuspended in TC medium at the concentration of 3e5/mL and 25 μL of cell suspension were added into each well of compound-spotted plates. The plates were returned to a 37° C. incubator overnight (18-24 hr).
(§5) On Day 3, assay plates were removed from the TC incubator and 25 μL of Nano-Glo lytic detection system (Promega, cat #N3030) was added to each well. Plates were incubated at r.t. for 3 min with shaking, and luminescence was read using an Envision reader (Perkin Elmer).
(§6) All raw data was normalized to DMSO control (final concentration: 0.5%) wells as POC and plotted out for EC50 and Dmax (Maximum degradation at the highest concentration tested in the assay).

IKZF1 = biological target: T2, IKZF1 (Homo sapiens, UniProt Q13422+Q96SW2); assay: HiBiT protein tagging assay, in vitro IKZF1 degradation (HEK293); type: cell-based; conditions: HEK293, 18-24 hr incubation, normalized to DMSO control; for Dmax: read-out: IKZF1 Dmax (maximum degradation at the highest concentration tested); for DC50: read-out: IKZF1 EC50
T2 construct: expressed in transfected cells
T2 sequence (Q13422 whole entry): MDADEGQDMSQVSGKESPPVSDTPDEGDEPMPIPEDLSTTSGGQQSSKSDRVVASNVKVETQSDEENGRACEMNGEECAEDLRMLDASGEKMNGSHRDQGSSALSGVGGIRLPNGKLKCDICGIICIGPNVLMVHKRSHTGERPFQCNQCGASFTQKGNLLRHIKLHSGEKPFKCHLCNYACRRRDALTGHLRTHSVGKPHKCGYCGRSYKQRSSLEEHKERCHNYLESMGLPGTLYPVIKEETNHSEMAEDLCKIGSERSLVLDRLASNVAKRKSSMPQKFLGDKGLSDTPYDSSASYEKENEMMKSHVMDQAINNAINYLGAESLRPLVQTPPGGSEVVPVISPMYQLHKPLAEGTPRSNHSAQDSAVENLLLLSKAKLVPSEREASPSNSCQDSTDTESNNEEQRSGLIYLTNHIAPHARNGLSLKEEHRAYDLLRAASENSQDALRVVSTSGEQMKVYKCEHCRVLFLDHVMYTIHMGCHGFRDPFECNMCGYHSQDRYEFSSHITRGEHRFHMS
T2 sequence (Q96SW2 whole entry): as the sequence (Q96SW2 whole entry) above
T2 sequence (Q16531 whole entry partner): as the sequence (Q16531 whole entry partner) above
Experimental: as §1, §2, §3, §4, §5, §6

Row | SMILES | Dmax (IKZF2) [%] | DC50 (IKZF2) [nM] | Dmax (IKZF1) [%] | DC50 (IKZF1) [nM]
1 | C[C@@H](c1ccccc1)N1CCC[C@@H](NCc2ccc3c(c2)CN(C2CCC(=O)NC2=O)C3=O)C1 (stereo partly drawn) [Example 27, 3-(1-oxo-5-((((R)-1-((S)-1-phenylethyl)piperidin-3-yl)amino)methyl)isoindolin-2-yl)piperidine-2,6-dione] | 93 | 41 | 94 | 9
2 | O=C1CCC(N2Cc3cc(CN[C@@H]4CCCN(c5ccccc5)C4)ccc3C2=O)C(=O)N1 (stereo partly drawn) [Example 30, 3-(1-oxo-5-((((R)-1-phenylpiperidin-3-yl)amino)methyl)isoindolin-2-yl)piperidine-2,6-dione] | 36 | 208 | 44 | 90
3 | O=C1CCC(N2Cc3cc(CNC4CCN(c5cccnc5)CC4)ccc3C2=O)C(=O)N1 (stereo not drawn) [Example 36, 3-(1-oxo-5-(((1-(pyridin-3-yl)piperidin-4-yl)amino)methyl)isoindolin-2-yl)piperidine-2,6-dione] | 90 | 588 | 84 | 96
4 | O=C1CCC(N2Cc3cc(CNC4CCN(C(=O)OCc5ccccc5)CC4)ccc3C2=O)C(=O)N1 (stereo not drawn) [Example 3, benzyl 4-(((2-(2,6-dioxopiperidin-3-yl)-1-oxoisoindolin-5-yl)methyl)amino)piperidine-1-carboxylate] | 94 | 39 | 95 | 7
5 | O=C1CCC(N2Cc3cc(CN[C@@H]4CCCN(CCc5ccccc5)C4)ccc3C2=O)C(=O)N1 (stereo partly drawn) [Example 29, 3-(1-oxo-5-((((R)-1-phenethylpiperidin-3-yl)amino)methyl)isoindolin-2-yl)piperidine-2,6-dione] | 20 | 665 | 58 | 102
6 | O=C1CCC(N2Cc3cc(CNC4CCCCC4)ccc3C2=O)C(=O)N1 (stereo not drawn) [Example 5, 3-(5-((Cyclohexylamino)methyl)-1-oxoisoindolin-2-yl)piperidine-2,6-dione] | 78 | 118 | 38 | 123
7 | O=C1CCC(N2Cc3cc(CN[C@H]4CCN(Cc5ccccc5)C4)ccc3C2=O)C(=O)N1 (stereo partly drawn) [Example 19, 3-(5-((((S)-1-benzylpyrrolidin-3-yl)amino)methyl)-1-oxoisoindolin-2-yl)piperidine-2,6-dione] | 52 | 442 | 46 | 122
8 | O=C1CCC(N2Cc3cc(CN[C@H]4CCc5ccccc5C4)ccc3C2=O)C(=O)N1 (stereo partly drawn) [Example 13, 3-(1-oxo-5-((((S)-1,2,3,4-tetrahydronaphthalen-2-yl)amino)methyl)isoindolin-2-yl)piperidine-2,6-dione] | 73 | 23 | 48 | 31
9 | O=C1CCC(N2Cc3cc(CN[C@H]4CCC[C@@H](Cc5ccccc5)C4)ccc3C2=O)C(=O)N1 (relative stereo) [Example 12, 3-(5-((((1,3-cis)-3-benzylcyclohexyl)amino)methyl)-1-oxoisoindolin-2-yl)piperidine-2,6-dione] | 96 | 10 | 95 | 3
10 | O=C1CCC(N2Cc3cc(CNCC4CCCc5ccccc54)ccc3C2=O)C(=O)N1 (stereo not drawn) [Example 22, 3-(1-oxo-5-((((1,2,3,4-tetrahydronaphthalen-1-yl)methyl)amino)methyl)isoindolin-2-yl)piperidine-2,6-dione] | 36 | 110 | 78 | 25
11 | O=C1CCC(N2Cc3cc(CN[C@H]4CCC[C@H](Cc5ccccc5)C4)ccc3C2=O)C(=O)N1 (relative stereo) [Example 11, 3-(5-((((1,3-trans)-3-benzylcyclohexyl)amino)methyl)-1-oxoisoindolin-2-yl)piperidine-2,6-dione] | 68 | 81 | 67 | 25

The next lines start with the values.

Row | Dmax (IKZF2) [%] | DC50 (IKZF2) [nM] | Dmax (IKZF1) [%] | DC50 (IKZF1) [nM] | SMILES
12 | 87 | 106 | 61 | 122 | C[C@]1(NCc2ccc3c(c2)CN(C2CCC(=O)NC2=O)C3=O)CCCN(Cc2ccccc2)C1 (stereo partly drawn) [Example 155, 3-(5-((((S)-1-benzyl-3-methylpiperidin-3-yl)amino)methyl)-1-oxoisoindolin-2-yl)piperidine-2,6-dione]
13 | 51 | 166 | 30 | 47 | O=C1CCC(N2Cc3cc(CNC4CCCC(c5ccccc5)C4)ccc3C2=O)C(=O)N1 (stereo not drawn) [Example 50]
14 | 73 | 333 | 63 | 116 | O=C1CCC(N2Cc3cc(CN[C@H]4CCC[C@@H](Nc5ccccc5)C4)ccc3C2=O)C(=O)N1 (stereo partly drawn) [Example 91]
15 | 39 | 1800 | 22 | 1500 | O=C1CCC(N2Cc3cc(CNC4CC5CNC4C5)ccc3C2=O)C(=O)N1 (stereo not drawn) [Example 98, 3-(5-((((1,4,6-cis)-2-azabicyclo[2.2.1]heptan-6-yl)amino)methyl)-1-oxoisoindolin-2-yl)piperidine-2,6-dione]
16 | 94 | 231 | 92 | 95 | O=C1CCC(N2Cc3cc(CN[C@@H]4CCC[C@H]([C@@H](O)c5ccccc5)C4)ccc3C2=O)C(=O)N1 (stereo partly drawn) [Example 135]
17 | 32 | 2800 | 25 | 655 | CCN1CCC(NCc2ccc3c(c2)CN(C2CCC(=O)NC2=O)C3=O)CC1 (stereo not drawn) [Example 48, 3-(5-(((1-Ethylpiperidin-4-yl)amino)methyl)-1-oxoisoindolin-2-yl)piperidine-2,6-dione]
18 | 83 | 123 | 73 | 70 | CO[C@H]1CC[C@@H](NCc2ccc3c(c2)CN(C2CCC(=O)NC2=O)C3=O)CC1 (stereo partly drawn) [Example 86]
19 | 96 | 1300 | 77 | 246 | O=C1CCC(N2Cc3cc(CNC4CCN(C(=O)c5ccccc5)CC4)ccc3C2=O)C(=O)N1 (stereo not drawn) [Example 57]
20 | 56 | 206 | 61 | 85 | O=C1CCC(N2Cc3cc(CN[C@H]4CCC[C@@H](OCc5ccccc5)C4)ccc3C2=O)C(=O)N1 (stereo partly drawn) [Example 111]
21 | 76 | 141 | 36 | 275 | C[C@@H]1CCCC[C@@H]1NCc1ccc2c(c1)CN(C1CCC(=O)NC1=O)C2=O (stereo partly drawn) [Example 46]
22 | 86 | 427 | 95 | 124 | O=C1CCC(N2Cc3cc(CN[C@@H]4CCCN(Cc5ccncc5)C4)ccc3C2=O)C(=O)N1 (stereo partly drawn) [Example 125, 3-(1-oxo-5-((((R)-1-(pyridin-4-ylmethyl)piperidin-3-yl)amino)methyl)isoindolin-2-yl)piperidine-2,6-dione]
23 | 81 | 151 | 26 | 172 | CC1(NCc2ccc3c(c2)CN(C2CCC(=O)NC2=O)C3=O)CCCC1 (stereo not drawn) [Example 151, 3-(5-(((1-methylcyclopentyl)amino)methyl)-1-oxoisoindolin-2-yl)piperidine-2,6-dione]
24 | 72 | 118 | 55 | 105 | O=C1CCC(N2Cc3cc(CN[C@H]4CCC[C@@H](Oc5ccccc5)C4)ccc3C2=O)C(=O)N1 (stereo partly drawn) [Example 110]
